# Measured values as given in patent publication US12623942B2, “Method for extracting salts and temperature- regenerated extracting composition” (ADIONICS, priority 2016, dated 2026).
# Legend:
# [1] = Liquid-liquid extraction of mono-salt saline solution
# Excerpt: The extracting composition is obtained by solubilizing an amount of CEM and ASM in the selected fluidizing agent, dichloromethane CH2Cl2, dichlorobenzene or dichlorotoluene or any other fluidizing agent able to well solubilize the mixture CEM/ASM in order to obtain the searched final concentrations after solubilizing CEMs and ASMs in a minimum of 3 milliliters of fluidizing agent. If the selected fluidizing agent is also an ASM compound, so the selected ASM volume is at least 3 milliliters. The given concentrations of ASM2 and ASM9 are related to the added fluidizing agent volume and the concentrations of CEM are related to the added fluidizing agent+ASM volume. The extracting organic composition is then lightly heated so as to promote the solubilization of the organic compounds by means of a heat gun (temperature around 50 to 60° C.) for a few seconds (10 to 30 seconds) until a clear solution is obtained. The composition is thus left for 24 hours at room temperature so as to make sure that the obtained formulation is stable.
# These sealed formulations are then orbitally stirred at 500 revolutions/minute for two hours after adding an equivalent volume of water which was distilled twice so as to allow a water saturation of the whole formulation and a pH control at the inlet and at the outlet (pH close to 7, or at least maintained after contact with the saturation water).
# 3 mL of the prepared extracting organic composition are then taken from the lower phase of the decanted diphasic mixture and transferred to a vial containing 3 mL of the water containing the one or more considered chloride salts (NaCl or others), then the vial is sealed and orbitally stirred (at 500 revolutions per minute) for 2 hours at room temperature (RT), that is to say between 20 and 25° C.
# A verification is made to make sure that droplets in the range of 1-2 mm are really present during these stirrings in order to be sure that an equilibrium in the distribution of the considered chloride salt (NaCl or other) is achieved between both liquid phases at the end of stirring. The aspect of the organic and aqueous phases is clear and colorless or slightly turbid.
# Once the 2-hour stirring is carried out, the stirring is stopped and the whole is left for decantation for about 10 minutes, at least until both phases are completely separated, at the temperature of the assay. Then, the upper aqueous phase is taken then stirred and diluted in order to analyze its salinity by a ion chromatography (a Metrohm™ device including a cation analyzing column and an anion analyzing column suitable for the ions and for the concentration of the salts which are searched for). Likewise, the chloride salt (NaCl or other) initial aqueous solution is also analyzed by this ion chromatography to determine its cation and chloride molar relative concentration before the extraction. All the extractions and analyses were duplicated.
# The considered extracting composition comprises 0.1 mol/L of CEM1 and 3.52 mol/L of ASM2 in dichloromethane CH2Cl2, which was obtained as described above. The initial concentration of the considered salt in water, whether it is LiCl, NaCl, KCl, MgCl2, CaCl2, SrCl2 or BaCl2, is 0.1 mol/L.
# After carrying out these 7 specific extractions (duplicated) of salts, the amounts of extracted cations in relative molar percentage before and after extraction at room temperature and at water/extracting formulation iso-volume are indicated in table I: […]
# [2] = Selective extraction from a binary mixture NaCl/CaCl2; details: for % E Ca^++ / % E Na^+: RT, molar %
# Excerpt: A brine containing an equimolar mixture of salts, 0.05 mol/L of NaCl and CaCl2 each, which was made as described above, was contacted with two extracting compositions, one of which according to the invention.
# Each extracting composition comprises 0.1 mol/L of CEM
# [drawing 53] and 2.4 mol/L of ASM9 in 1,2-dichlorobenzene.
# A brine containing a mixture of NaCl and CaCl2 is made as described above to obtain the following initial saline concentrations in a mixture: 0.2 Mol/L of NaCl and 0.03 Mol/L of CaCl2. The extracting resin, is composed of 0.1 Mol/L of CEM2, 3.52 Mol/L of ASM2 and a complement of liquid ASM1, which is also used as a fluidizing agent.
# [3] = 0.1M CEM + 3.52M ASM2 in CH2Cl2, initial salt 0.1 mol/L, Org./Water = 1, molar %
# [4] = 0.1 Mol/L CEM2 + 3.52 Mol/L ASM2 + complement of liquid ASM1, brine 0.2 Mol/L NaCl and 0.03 Mol/L CaCl2
# [5] = 0.1 mol/L CEM + 2.4 mol/L ASM9 in 1,2-dichlorobenzene, brine 0.05 mol/L NaCl and CaCl2 each
smiles,measurement,setting,value
"CCN(CC)C(=O)COc1c2cc(C(C)(C)C)cc1Cc1cc(C(C)(C)C)cc(c1OCC(=O)N(CC)CC)Cc1cc(C(C)(C)C)cc(c1OCC(=O)N(CC)CC)Cc1cc(C(C)(C)C)cc(c1OCC(=O)N(CC)CC)Cc1cc(C(C)(C)C)cc(c1OCC(=O)N(CC)CC)Cc1cc(C(C)(C)C)cc(c1OCC(=O)N(CC)CC)C2 [CEM2, 4-tert-butyl-Calix[6]arene hexakis(N,N-diethylacetamide)]","Extraction rate at room temperature (RT), BaCl2",[1]; [3],63.2%
same,"Extraction rate at room temperature (RT), CaCl2",[1]; [3],57.8%
same,"Extraction rate at room temperature (RT), KCl",[1]; [3],25.4%
same,"Extraction rate at room temperature (RT), LiCl",[1]; [3],21.9%
same,"Extraction rate at room temperature (RT), MgCl2",[1]; [3],13.5%
same,"Extraction rate at room temperature (RT), NaCl",[1]; [3],22.7%
same,"Extraction rate at room temperature (RT), SrCl2",[1]; [3],63.8%
same,Calcium to sodium extraction rate,[1]; solutions containing only one of these salts (example 3),2.54
same,% E Ca^++,[2]; [4],88.0%
same,% E Na^+,[2]; [4],5.0%
same,% E Ca^++,[2]; [5],56.0%
same,% E Na^+,[2]; [5],4.0%
same,Ratio of the Ca/Na extraction rates,[2]; 0.2 Mol/L NaCl and 0.03 Mol/L CaCl2 (example 7),17.6
same,Calcium to sodium extraction rate,[2]; mixture with an iso-concentration of cations (example 6),14 times
